From publication PMC5527310, “Stringent Expression Control of Pathogenic R-body Production in Legume Symbiont Azorhizobium caulinodans” (mBio, 2017)

Target: T1, His6-PraR (Azorhizobium caulinodans, UniProt A8IG10)
T1 construct: full praR ORF, N-terminal His6 tag (pCold I, plasmid pTAC99), expressed in E. coli BLR(DE3), Ni-bead purified
Experiment: EMSA, FITC-labelled reb promoter dsDNA probe
Conditions: inhibits PraR binding to reb promoter DNA; 2OG 0.01 to 10 mM; pH 8.0, 5 mM MgCl2, 26 °C; direct 2OG binding to PraR not measured

T1 sequence (A8IG10 entry or part of it): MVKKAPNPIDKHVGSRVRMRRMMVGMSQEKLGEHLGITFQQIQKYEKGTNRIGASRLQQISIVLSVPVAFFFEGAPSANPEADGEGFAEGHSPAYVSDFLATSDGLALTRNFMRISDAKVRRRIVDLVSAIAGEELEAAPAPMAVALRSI

In the case of `O=C(O)CCC(=O)C(=O)O` [2-oxoglutarate], the “EMSA, FITC-labelled reb promoter dsDNA probe” value is reported as “binding of PraR to the reb promoter dsDNA probe decreased with increasing 2OG concentration”.
